pIC50: −log10 of the molar value. Entries after “also recorded” stand apart in the source; their conditions may differ.
Experiments:
Bcrp [1] = target: T1, Bcrp (Rattus norvegicus, UniProt Q80W57); test: Biliary excretion; assay type: in vitro ADME; details: 10 min; for Nitrofurantoin BEI, % of control (Ad-siNT) / Nitrofurantoin in vitro Clbiliary, % of control (Ad-siNT): 5 µM nitrofurantoin
T1 sequence (Q80W57 1-657): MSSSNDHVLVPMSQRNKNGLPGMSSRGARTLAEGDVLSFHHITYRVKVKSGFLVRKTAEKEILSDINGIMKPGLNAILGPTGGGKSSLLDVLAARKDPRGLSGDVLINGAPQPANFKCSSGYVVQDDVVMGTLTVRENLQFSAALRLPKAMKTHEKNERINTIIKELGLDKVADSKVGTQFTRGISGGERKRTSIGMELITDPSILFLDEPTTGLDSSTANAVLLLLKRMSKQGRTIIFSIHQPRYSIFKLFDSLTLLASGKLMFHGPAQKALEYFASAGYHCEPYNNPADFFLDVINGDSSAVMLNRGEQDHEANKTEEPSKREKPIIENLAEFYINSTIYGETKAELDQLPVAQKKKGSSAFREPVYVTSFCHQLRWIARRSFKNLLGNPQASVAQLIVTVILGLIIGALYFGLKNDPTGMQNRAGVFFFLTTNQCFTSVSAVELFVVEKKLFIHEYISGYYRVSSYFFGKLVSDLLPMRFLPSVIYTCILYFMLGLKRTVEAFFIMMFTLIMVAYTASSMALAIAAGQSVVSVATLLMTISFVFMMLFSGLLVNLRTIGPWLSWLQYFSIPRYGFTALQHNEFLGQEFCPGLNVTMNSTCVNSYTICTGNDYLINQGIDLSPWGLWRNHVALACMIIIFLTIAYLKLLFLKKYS

Bcrp [2] = details: cited from earlier work
P-gp = details: 2 µM GF120918, SCRH; cited from earlier work
Bcrp [3] = target: T1, Bcrp; test: GF120918 inhibition of nitrofurantoin biliary excretion in SCRH
[4] = test system: sandwich-cultured rat hepatocytes (SCRH); details: 10-min incubation; digoxin 1 µM, nitrofurantoin 5 µM
BCRP [5] = details: read-out: Ki or IC50 values for BCRP; cited from earlier work
Caco-2 cells = details: 10 µM FTC; cited from earlier work
[6] = day 4 Ad-si01Bcrp-infected SCRH
[7] = day 6 Ad-si01Bcrp-infected SCRH
[8] = 2 µM GF120918, 5 µM nitrofurantoin, 10 min, day 4 SCRH
[9] = 2 µM GF120918, 5 µM nitrofurantoin, 10 min, day 4 SCRH, data not shown

O=C1CN(/N=C/c2ccc([N+](=O)[O-])o2)C(=O)N1 [nitrofurantoin]
Nitrofurantoin accumulation in cells + BC versus control (Ad-siNT) (Bcrp [1]; Ad-si01Bcrp-infected SCRH, 5 µM): similar | Cellular accumulation of nitrofurantoin versus control (Ad-siNT) (Bcrp [1]; Ad-si01Bcrp-infected day 4 and day 6 SCRH, 5 µM): increased markedly; also recorded: significantly increased | Nitrofurantoin BEI, % of control (Ad-siNT) (Bcrp [1]; [6]): ~ 24 % of control | Nitrofurantoin in vitro Clbiliary, % of control (Ad-siNT) (Bcrp [1]; [6]): ~ 27 % of control | Nitrofurantoin BEI, % of control (Ad-siNT) (Bcrp [1]; [7]): 11 % of control | Nitrofurantoin in vitro Clbiliary, % of control (Ad-siNT) (Bcrp [1]; [7]): 14 % of control | Nitrofurantoin biliary excretion in Abcg2-knockout mice (Bcrp [2]): almost completely abolished

COc1cc2c(cc1OC)CN(CCc1ccc(NC(=O)c3cccc4c(=O)c5cccc(OC)c5[nH]c34)cc1)CC2 [GF120918, N-(4-[2-(1,2,3,4-tetrahydro-6,7-dimethoxy-2-isoquinolinyl)ethyl]-phenyl)-9,10-dihydro-5-methoxy-9-oxo-4-acridine carboxamide]
P-gp-mediated biliary excretion of digoxin, % of control (P-gp): ~ 25 % of control | Effect on cellular accumulation of nitrofurantoin (Bcrp [3]; [8]): significantly increased | Effect on nitrofurantoin accumulation in cells + BC (Bcrp [3]; [8]): did not affect | Nitrofurantoin BEI in presence of inhibitor, % of control (Bcrp [3]; [9]): ~ 8 % of control | Nitrofurantoin in vitro Clbiliary in presence of inhibitor, % of control (Bcrp [3]; [9]): ~ 8 % of control | Inhibition of nitrofurantoin biliary excretion (Bcrp [3]; 2 µM GF120918, SCRH): almost completely inhibited

C[C@H]1O[C@@H](O[C@H]2[C@@H](O)C[C@H](O[C@H]3[C@@H](O)C[C@H](O[C@H]4CC[C@@]5(C)[C@H](CC[C@@H]6[C@@H]5C[C@@H](O)[C@]5(C)[C@@H](C7=CC(=O)OC7)CC[C@]65O)C4)O[C@@H]3C)O[C@@H]2C)C[C@H](O)[C@@H]1O [digoxin]
Effect of Bcrp knockdown on digoxin accumulation (cells + BC or cells), BEI or in vitro Clbiliary (Bcrp [1]; Ad-si01Bcrp-infected day 4 or day 6 SCRH, 1 µM digoxin): unaffected; also recorded: did not affect | Accumulation in cells + BC and cells, day 6 versus day 4 SCRH [4]: lower

COc1ccc2c3c([nH]c2c1)[C@H](C=C(C)C)N1C(=O)[C@@H]2CCCN2C(=O)[C@@H]1C3 [FTC, fumitremorgin C]
pIC50 (BCRP [5]): 5.89 to 6.52 | Effect on digoxin transport in Caco-2 cells (Caco-2 cells): inhibited

From article PMC3135650 (Molecular pharmaceutics, 2009)
